Reference: ChEMBL document CHEMBL5352400, “Design, synthesis and biological evaluation of novel coumarin derivatives as multifunctional ligands for the treatment of Alzheimer's disease” (Eur J Med Chem, 2022)
Active and inactive are the calls of the source. No cut-off for these calls is given here.

Columns and labels:
[1] = molecular target: Cholinesterase (Equus caballus, UniProt P81908); experiment: Inhibition of equine serum BuChE using butylthiocholine iodine as substrate preincubated for 20 mins followed by substrate addition and measured after 20 mins by DTNB reagent based Ellman's method
[2] = Cytotoxicity in human HepG2 cells assessed as reduction in cell viability incubated for 48 hrs by MTT assay; format: toxicity, cell-based
[3] = Selectivity index, ratio of IC50 for inhibition of equine serum BuChE to IC50 for inhibition of electric eel AChE
[4] = molecular target: T1, Acetylcholinesterase (Electrophorus electricus, UniProt O42275); experiment: Inhibition of electric eel AChE using acetylthiocholine iodine as substrate preincubated for 20 mins followed by substrate addition and measured after 20 mins by DTNB reagent based Ellman's method
[5] = Cytotoxicity in human SH-SY5Y cells assessed as reduction in cell viability incubated for 48 hrs by MTT assay; format: toxicity, cell-based
[6] = molecular target: T2, Beta-secretase 1 (Homo sapiens, UniProt P56817); experiment: Inhibition of recombinant human BACE1 using fluorogenic polypeptide Mca-SEVNLDAEFRK(Dpn)RRNH2 as substrate at 10 uM incubated for 60 mins by FRET assay relative to control
[7] = Effective permeability of the compound in PBS buffer at pH 7.4/EtOH buffer (7:3) incubated for 20 hrs by UV-plate spectroscopy based PAMPA-BBB assay
[8] = Cytotoxicity in human HL7702 cells assessed as reduction in cell viability incubated for 48 hrs by MTT assay; format: toxicity, cell-based; conditions: HL7702 (L02) cells
[9] = molecular target: T2, Beta-secretase 1; experiment: Inhibition of recombinant human BACE1 using fluorogenic polypeptide Mca-SEVNLDAEFRK(Dpn)RRNH2 as substrate incubated for 60 mins by FRET assay
[10] = Acute toxicity in KM mouse assessed as body weight change upto 1000 mg/kg,ip and measured after 14 days; format: organism-based; conditions: in vivo, 336 h, time 14 day
[11] = molecular target: T1, Acetylcholinesterase; experiment: Competitive inhibition of electric eel AChE assessed as dissociation constant using acetylthiocholine as substrate by Lineweaver-Burk plot analysis
[12] = Acute toxicity in KM mouse assessed as change in behavior upto 1000 mg/kg,ip and measured after 14 days; format: organism-based; conditions: in vivo, 336 h, time 14 day
[13] = molecular target: Acetylcholinesterase (Electrophorus electricus) (UniProt O42275); experiment: Competitive inhibition of electric eel AChE assessed as increase in slope using acetylthiocholine iodine as substrate preincubated for 20 mins followed by concentrations of substrate addition and measured after 20 mins by Lineweaver-Burk plot analysis; conditions: time 40.0 min
[14] = Acute toxicity in KM mouse assessed as change in survival rate upto 1000 mg/kg,ip and measured after 14 days; format: organism-based; conditions: in vivo, 336 h, time 14 day
[15] = molecular target: T2, Beta-secretase 1; experiment: Inhibition of BACE1 (unknown origin)
[16] = molecular target: Glycogen synthase kinase-3 beta (Homo sapiens, UniProt P49841); experiment: Inhibition of GSK-3beta (unknown origin)
Sequence of Glycogen synthase kinase-3 beta (P49841 whole entry): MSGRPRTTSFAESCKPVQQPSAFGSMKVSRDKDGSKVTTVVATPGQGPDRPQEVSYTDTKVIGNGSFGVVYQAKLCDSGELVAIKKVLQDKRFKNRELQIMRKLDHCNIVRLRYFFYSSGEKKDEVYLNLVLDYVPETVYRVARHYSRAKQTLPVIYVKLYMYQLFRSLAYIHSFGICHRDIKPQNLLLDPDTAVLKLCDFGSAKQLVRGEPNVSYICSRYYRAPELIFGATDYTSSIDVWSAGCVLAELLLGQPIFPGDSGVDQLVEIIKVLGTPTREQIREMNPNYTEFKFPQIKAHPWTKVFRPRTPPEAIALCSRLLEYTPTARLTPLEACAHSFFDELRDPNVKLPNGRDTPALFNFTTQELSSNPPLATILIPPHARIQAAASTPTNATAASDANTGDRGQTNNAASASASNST

T1 sequence (O42275 whole entry): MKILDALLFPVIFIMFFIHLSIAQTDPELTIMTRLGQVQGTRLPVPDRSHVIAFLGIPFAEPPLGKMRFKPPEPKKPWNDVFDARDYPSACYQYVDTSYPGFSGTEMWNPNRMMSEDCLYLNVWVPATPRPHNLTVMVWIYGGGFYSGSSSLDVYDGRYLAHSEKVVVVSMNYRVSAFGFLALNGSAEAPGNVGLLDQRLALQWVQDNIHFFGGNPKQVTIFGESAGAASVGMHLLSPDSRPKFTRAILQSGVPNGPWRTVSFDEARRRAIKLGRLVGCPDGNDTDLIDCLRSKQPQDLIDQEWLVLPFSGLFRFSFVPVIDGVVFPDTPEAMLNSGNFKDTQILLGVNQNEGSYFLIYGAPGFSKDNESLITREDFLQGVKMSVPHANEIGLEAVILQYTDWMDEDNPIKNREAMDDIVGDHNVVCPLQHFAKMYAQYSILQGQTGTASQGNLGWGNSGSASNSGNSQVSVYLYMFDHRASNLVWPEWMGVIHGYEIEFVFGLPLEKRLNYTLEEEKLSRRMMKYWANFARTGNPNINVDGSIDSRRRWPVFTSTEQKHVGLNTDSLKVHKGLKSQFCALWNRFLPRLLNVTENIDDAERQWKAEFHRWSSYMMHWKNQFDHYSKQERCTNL
Sequence of Cholinesterase (P81908 whole entry): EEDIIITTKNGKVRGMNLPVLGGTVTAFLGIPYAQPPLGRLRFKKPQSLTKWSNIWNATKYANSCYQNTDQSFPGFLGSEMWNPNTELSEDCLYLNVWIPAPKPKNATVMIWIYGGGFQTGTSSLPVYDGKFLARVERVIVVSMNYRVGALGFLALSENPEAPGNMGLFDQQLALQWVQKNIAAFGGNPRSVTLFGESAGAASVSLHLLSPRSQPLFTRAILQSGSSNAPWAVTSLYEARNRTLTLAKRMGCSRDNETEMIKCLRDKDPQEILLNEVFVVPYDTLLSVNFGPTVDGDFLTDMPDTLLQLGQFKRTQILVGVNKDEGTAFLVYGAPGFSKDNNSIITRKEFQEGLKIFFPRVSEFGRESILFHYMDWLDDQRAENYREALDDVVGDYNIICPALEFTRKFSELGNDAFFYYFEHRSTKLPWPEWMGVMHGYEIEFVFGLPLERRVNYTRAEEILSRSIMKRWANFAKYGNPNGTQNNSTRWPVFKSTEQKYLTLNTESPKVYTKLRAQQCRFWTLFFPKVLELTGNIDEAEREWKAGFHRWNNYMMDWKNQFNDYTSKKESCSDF
T2 sequence (P56817 whole entry): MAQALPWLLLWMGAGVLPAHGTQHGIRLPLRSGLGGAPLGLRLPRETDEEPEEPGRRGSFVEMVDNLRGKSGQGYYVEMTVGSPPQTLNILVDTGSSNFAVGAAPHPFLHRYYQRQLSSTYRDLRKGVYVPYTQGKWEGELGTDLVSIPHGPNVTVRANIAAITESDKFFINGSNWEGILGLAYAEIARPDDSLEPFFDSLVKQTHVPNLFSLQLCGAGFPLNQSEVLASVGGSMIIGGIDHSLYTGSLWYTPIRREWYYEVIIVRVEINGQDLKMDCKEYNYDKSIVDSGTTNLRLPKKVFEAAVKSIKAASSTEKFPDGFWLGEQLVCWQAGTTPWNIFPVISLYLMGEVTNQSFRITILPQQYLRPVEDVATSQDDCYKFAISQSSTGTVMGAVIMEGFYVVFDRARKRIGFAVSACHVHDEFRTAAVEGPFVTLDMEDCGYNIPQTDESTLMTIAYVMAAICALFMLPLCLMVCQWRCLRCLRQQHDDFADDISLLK
Sequence of Acetylcholinesterase (Electrophorus electricus) (O42275 24-633 limits assumed): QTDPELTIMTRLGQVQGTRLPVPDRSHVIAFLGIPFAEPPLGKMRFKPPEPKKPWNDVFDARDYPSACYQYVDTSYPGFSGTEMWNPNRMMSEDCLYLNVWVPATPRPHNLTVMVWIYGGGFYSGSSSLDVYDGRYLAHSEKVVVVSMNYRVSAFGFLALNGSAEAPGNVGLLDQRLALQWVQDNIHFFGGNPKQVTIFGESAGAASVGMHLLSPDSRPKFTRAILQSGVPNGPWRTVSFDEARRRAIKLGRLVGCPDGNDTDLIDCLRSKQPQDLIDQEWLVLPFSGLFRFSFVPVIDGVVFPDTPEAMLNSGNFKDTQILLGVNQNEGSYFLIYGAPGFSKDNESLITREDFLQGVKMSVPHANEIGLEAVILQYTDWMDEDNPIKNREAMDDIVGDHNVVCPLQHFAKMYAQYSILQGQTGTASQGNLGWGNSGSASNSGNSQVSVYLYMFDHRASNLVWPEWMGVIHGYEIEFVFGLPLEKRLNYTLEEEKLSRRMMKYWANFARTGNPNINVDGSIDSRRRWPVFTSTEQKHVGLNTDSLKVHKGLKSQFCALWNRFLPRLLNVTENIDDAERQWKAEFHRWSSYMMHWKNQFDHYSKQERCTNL

O=c1cc(OCCCN2CCC(NCc3ccccc3F)CC2)c2ccc(-c3cccnc3)cc2o1
IC50 [1]: > 50 µM | IC50 at 48 h [2]: 15.1 µM | Ratio IC50 [3]: > 4.31 | IC50 [4]: 11.6 µM | IC50 at 48 h [5]: 19.1 µM

N#Cc1cccc(CNC2CCN(CCCOc3cc(=O)oc4cc(-c5cccnc5)ccc34)CC2)c1
IC50 [1]: > 50 µM | IC50 at 48 h [2]: 3.26 µM | inhibition [6]: 89.5% | Ratio IC50 [3]: > 6.87 | IC50 [4]: 7.28 µM | IC50 at 48 h [5]: 12.4 µM

Cc1ccc(CNC2CCN(CCCOc3cc(=O)oc4cc(-c5cccnc5)ccc34)CC2)cc1
IC50 [1]: 16.3 µM | IC50 at 48 h [2]: 9.93 µM | inhibition [6]: 36.4% | Ratio IC50 [3]: 1.15 | IC50 [4]: 14.2 µM | IC50 at 48 h [5]: 16.5 µM

O=c1cc(OCCCN2CCC(NCc3ccc(F)cc3)CC2)c2ccc(-c3cccnc3)cc2o1
IC50 [1]: > 50 µM | IC50 at 48 h [2]: > 20 µM | inhibition [6]: 22.1% | Ratio IC50 [3]: > 1.93 | IC50 [4]: 25.9 µM | IC50 at 48 h [5]: 10.9 µM

O=c1cc(OCCCNC2CCN(Cc3ccccc3)CC2)c2ccc(-c3ccnc(F)c3)cc2o1
IC50 [1]: > 50 µM | IC50 at 48 h [2]: 5.95 µM | Ratio IC50 [3]: > 23.4 | IC50 [4]: 2.14 µM | IC50 at 48 h [5]: 5.56 µM

O=c1cc(OCCCN2CCC(NCc3ccccc3)CC2)c2ccc(Br)cc2o1
IC50 [1]: 35.7 µM | IC50 at 48 h [2]: 11.8 µM | inhibition [6]: 72.8% | Ratio IC50 [3]: 1.58 | IC50 [4]: 22.7 µM | IC50 at 48 h [5]: > 20 µM

O=c1cc(OCCCN2CCC(NCc3ccccc3)CC2)c2ccc(-c3ccc(F)nc3)cc2o1
IC50 [1]: 44.2 µM | IC50 at 48 h [2]: 8.49 µM | Ratio IC50 [3]: 12.5 | IC50 [4]: 3.54 µM | IC50 at 48 h [5]: 12.2 µM

COc1ccc(CNC2CCN(CCCOc3cc(=O)oc4cc(-c5cccnc5)ccc34)CC2)cc1
IC50 [1]: 11.3 µM | IC50 at 48 h [2]: 9.12 µM | inhibition [6]: 82% | Ratio IC50 [3]: 0.982 | IC50 [4]: 11.6 µM | IC50 at 48 h [5]: 6.81 µM

O=c1cc(OCCCNC2CCN(Cc3ccccc3)CC2)c2ccc(-c3ccc(F)cc3)cc2o1
IC50 [1]: > 50 µM | IC50 at 48 h [2]: 9.14 µM | Ratio IC50 [3]: > 1.46 | IC50 [4]: 34.3 µM | IC50 at 48 h [5]: 6.69 µM

O=c1cc(OCCCN2CCC(NCc3ccsc3)CC2)c2ccc(-c3cccnc3)cc2o1
IC50 [1]: 9.98 µM | IC50 at 48 h [2]: 14.1 µM | inhibition [6]: 64.7% | Ratio IC50 [3]: 3.03 | IC50 [4]: 3.29 µM | IC50 at 48 h [5]: 14.2 µM | Papp at 20 h [7]: 15.4 ×10⁻⁶ cm/s | IC50 at 48 h [8]: 36.2 µM

O=c1cc(OCCCNC2CCN(Cc3ccccc3)CC2)c2ccc(-c3ccncc3)cc2o1
IC50 [1]: > 50 µM | IC50 at 48 h [2]: 10.6 µM | Ratio IC50 [3]: > 22.3 | IC50 [4]: 2.24 µM | IC50 at 48 h [5]: 10.2 µM

O=c1cc(OCCCN2CCC(NCc3ccc(F)c(F)c3)CC2)c2ccc(-c3cccnc3)cc2o1
IC50 [1]: 22.8 µM | IC50 at 48 h [2]: 9.72 µM | inhibition [6]: 93.8% | IC50 [9]: 1.81 µM | Ratio IC50 [3]: 1.78 | IC50 [4]: 12.7 µM | IC50 at 48 h [5]: 5.36 µM | Papp at 20 h [7]: 9.4 ×10⁻⁶ cm/s | IC50 at 48 h [8]: 8.05 µM

O=c1cc(OCCCN2CCOCC2)c2ccc(-c3cccnc3)cc2o1
IC50 [1]: > 50 µM | IC50 at 48 h [2]: > 20 µM | Ratio IC50 [3]: > 3.19 | IC50 [4]: 15.7 µM | IC50 at 48 h [5]: > 20 µM

O=c1cc(OCCCN2CCC(NCc3cccc(F)c3)CC2)c2ccc(-c3cccnc3)cc2o1
IC50 [1]: 28.4 µM | IC50 at 48 h [2]: 14.6 µM | inhibition [6]: 34% | Ratio IC50 [3]: 2.82 | IC50 [4]: 10.1 µM | IC50 at 48 h [5]: 14.4 µM

CN(Cc1ccccc1)C1CCN(CCCOc2cc(=O)oc3cc(-c4ccc(F)nc4)ccc23)CC1
IC50 [1]: > 50 µM | IC50 at 48 h [2]: 10.4 µM | inhibition [6]: 61.3% | Ratio IC50 [3]: > 12.3 | IC50 [4]: 4.07 µM | IC50 at 48 h [5]: 15.6 µM

O=c1cc(OCCCNC2CCN(Cc3ccccc3)CC2)c2ccc(-c3cccnc3)cc2o1
IC50 [1]: 32.3 µM | IC50 at 48 h [2]: 10.2 µM | Activity [10]: Non-Toxic | inhibition [6]: 86.8% | Ki [11]: 2.64 µM | Activity [12]: Non-Toxic | inhibition [13]: Active | IC50 [9]: 1.23 µM | Ratio IC50 [3]: 24.6 | IC50 [4]: 1.31 µM | IC50 at 48 h [5]: 10.7 µM | Papp at 20 h [7]: 22.8 ×10⁻⁶ cm/s | Activity [14]: Non-Toxic | IC50 at 48 h [8]: 34.7 µM

O=c1cc(OCCCN2CCC(NCc3cccc([N+](=O)[O-])c3)CC2)c2ccc(-c3cccnc3)cc2o1
IC50 [1]: > 50 µM | IC50 at 48 h [2]: 9.29 µM | inhibition [6]: 46.1% | Ratio IC50 [3]: > 1.37 | IC50 [4]: 36.5 µM | IC50 at 48 h [5]: 8.37 µM

COc1cccc(CNC2CCN(CCCOc3cc(=O)oc4cc(-c5cccnc5)ccc34)CC2)c1
IC50 [1]: 11.3 µM | IC50 at 48 h [2]: 11.4 µM | inhibition [6]: 48.8% | Ratio IC50 [3]: > 4.03 | IC50 [4]: 12.4 µM | IC50 at 48 h [5]: 19.3 µM

O=c1cc(OCCCN2CCC(CNCc3ccccc3F)CC2)c2ccc(-c3cccnc3)cc2o1
IC50 [1]: 31.1 µM | IC50 at 48 h [2]: 4.26 µM | inhibition [6]: 67.2% | Ratio IC50 [3]: 2.91 | IC50 [4]: 10.7 µM | IC50 at 48 h [5]: 6.49 µM

O=C(Nc1cc(-c2ccc3c(OCCCNC4CCN(Cc5ccccc5)CC4)cc(=O)oc3c2)ccn1)c1ccccc1
IC50 [1]: > 50 µM | IC50 at 48 h [2]: 1.91 µM | Ratio IC50 [3]: > 3.7 | IC50 [4]: 13.5 µM | IC50 at 48 h [5]: 1.5 µM

O=c1cc(OCCCNC2CCN(Cc3ccccc3)CC2)c2ccc(-c3ccc(F)nc3)cc2o1
IC50 [1]: > 50 µM | IC50 at 48 h [2]: 3.93 µM | Ratio IC50 [3]: > 29 | IC50 [4]: 1.72 µM | IC50 at 48 h [5]: 5.75 µM

O=C(Nc1cc(-c2ccc3c(OCCCNC4CCN(Cc5ccccc5)CC4)cc(=O)oc3c2)ccn1)C1CC1
IC50 [1]: > 50 µM | IC50 at 48 h [2]: 3.65 µM | inhibition [6]: 30.9% | Ratio IC50 [3]: > 7.41 | IC50 [4]: 6.75 µM | IC50 at 48 h [5]: 3.41 µM

O=c1cc(OCCCN2CCC(NCc3ccccc3)CC2)c2ccc(-c3cccnc3)cc2o1
IC50 [1]: 21.4 µM | IC50 at 48 h [2]: > 20 µM | inhibition [6]: 51.4% | Ratio IC50 [3]: 2.3 | IC50 [4]: 9.31 µM | IC50 at 48 h [5]: > 20 µM

CC(C)=CC(O)C/C(C)=C/COc1c2ccoc2cc2oc(=O)ccc12 (configuration not stated) [NOTOPTEROL]
IC50 [1]: > 100 µM | IC50 [15]: 26 µM | IC50 at 48 h [2]: > 20 µM | IC50 [16]: 1 µM | inhibition [6]: 10.2% | IC50 [9]: 26 µM | IC50 [4]: > 100 µM | IC50 at 48 h [5]: > 20 µM

O=C(Nc1cc(-c2ccc3c(OCCCN4CCC(NCc5ccccc5)CC4)cc(=O)oc3c2)ccn1)C1CC1
IC50 [1]: 29 µM | IC50 at 48 h [2]: 3.34 µM | inhibition [6]: 34.7% | Ratio IC50 [3]: 2.99 | IC50 [4]: 9.69 µM | IC50 at 48 h [5]: 1.87 µM

CN(Cc1ccccc1)C1CCN(CCCOc2cc(=O)oc3cc(-c4ccc(F)cc4)ccc23)CC1
IC50 [1]: > 50 µM | IC50 at 48 h [2]: 3.37 µM | inhibition [6]: 70.9% | Ratio IC50 [3]: > 11 | IC50 [4]: 4.55 µM | IC50 at 48 h [5]: 4.88 µM

C[C@@]1(c2cc(-c3cncnc3)c(F)cc2F)CCSC(N)=N1
inhibition [6]: 80.3%

O=c1cc(OCCCN2CCC(NCc3ccccc3)CC2)c2ccc(-c3ccncc3)cc2o1
IC50 [1]: > 50 µM | IC50 at 48 h [2]: 13.9 µM | inhibition [6]: 49.4% | Ratio IC50 [3]: > 2.97 | IC50 [4]: 16.8 µM | IC50 at 48 h [5]: 16.4 µM

Cc1cccc(CNC2CCN(CCCOc3cc(=O)oc4cc(-c5cccnc5)ccc34)CC2)c1
IC50 [1]: 18.6 µM | IC50 at 48 h [2]: 13.1 µM | Ratio IC50 [3]: 1.12 | IC50 [4]: 16.6 µM | IC50 at 48 h [5]: 12 µM

Nc1c2c(nc3ccccc13)CCCC2 [TACRINE]
Papp at 20 h [7]: 8.04 ×10⁻⁶ cm/s

COc1cccc(/C=N/C2CCN(Cc3ccccc3)CC2)c1OC
IC50 [16]: > 15 µM
